From patent US20100184815A1 (priority 2008, published 2010)

molecular target: T1, Full Length hPPARβ/δ (Homo sapiens, UniProt Q03181); assay: Full length hPPARβ/δ transfection assay; assay type: cell-based; conditions: full length receptor; scale 1-5; read-out: Full Length hPPAR β/δ EC50 (scaled number)
T1 construct: Full Length; expressed in transfected cells; host or cells: Cos cells
T1 sequence (Q03181 1-441): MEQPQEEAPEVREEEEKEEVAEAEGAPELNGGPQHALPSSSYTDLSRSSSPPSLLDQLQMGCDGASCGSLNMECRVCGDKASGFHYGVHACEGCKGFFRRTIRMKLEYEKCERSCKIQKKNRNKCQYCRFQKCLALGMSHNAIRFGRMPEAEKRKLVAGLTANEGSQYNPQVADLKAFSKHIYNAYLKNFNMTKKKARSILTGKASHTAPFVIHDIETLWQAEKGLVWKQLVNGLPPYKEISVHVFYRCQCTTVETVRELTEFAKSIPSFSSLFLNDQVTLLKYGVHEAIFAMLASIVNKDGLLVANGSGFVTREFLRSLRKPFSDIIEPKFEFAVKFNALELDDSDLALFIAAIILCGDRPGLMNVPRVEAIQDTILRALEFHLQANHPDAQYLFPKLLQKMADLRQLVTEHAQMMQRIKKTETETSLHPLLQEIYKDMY
Method: Transient transfection assays. Cos cells were seeded in 60-mm dishes at a density of 5.5×10^5 cells/dish in Dulbecco's modified Eagle's medium (DMEM) supplemented with 10% fetal calf serum (FCS) and incubated at 37° C. for 24 hours before transfection. Cells were transfected in Opti-MEM (Gibco; Invitrogen, Carlsbad, Calif.) without FCS for 3 hours at 37° C., using polyethylenimine, with reporter and expression plasmids. The plasmid pBluescript (Stratagene, La Jolla, Calif.) was used as carrier DNA to set the final amount of DNA to 5.5 μg/dish. The pCMV-b-galactosidase expression plasmid was cotransfected as a control for transfection efficiency. Transfection was stopped by the addition of DMEM supplemented with 10% FCS, and cells were then incubated at 37° C. After 16 hours, cells were trypsinized and seeded in 96-well plates at the density of 2×10^4 cells/well and incubated for 6 hours in 10% FCS-containing DMEM. Cells were then incubated for 24 hours in DMEM containing 0.2% FCS and increasing concentrations of the compound tested or vehicle (DMSO). At the end of the experiment, cells were washed once with ice-cold PBS, lysed and the luciferase and b-galactosidase assays were performed in a luminometer and spectrophotomer. Transfection efficiencies were normalized with the b-galactosidase activity assay. Half-maximal effective concentration (EC50) was estimated using Prism software (GraphPad). All transfection experiments were performed at least three times.
In the following tables, proprietary compound EC50 values for hPPAR α, β, δ and γ are shown. The EC50 value is the concentration of a drug that induces a response halfway between the baseline and maximum, and is commonly used as a measure of drug potency. EC50 values are reported on a scale of 1 through 5, wherein the value scale is defined for each receptor as follows: […]

Row | EC50 [nM] | SMILES
1 | 201 to 999 | CCCCCCn1c(COC(=O)c2ccc(SC(C)(C)C(=O)O)cc2)nn(Cc2ccc(C)cc2)c1=O [Compound 160, 2-(4-(((4-hexyl-1-(4-methylbenzyl)-5-oxo-4,5-dihydro-1H-1,2,4-triazol-3-yl)methoxy)carbonyl)phenylthio)-2-methylpropanoic acid]
2 | 201 to 999 | CCCCCCCCn1c(COC(=O)c2ccc(SC(C)(C)C(=O)O)cc2)nn(Cc2ccc(C)cc2)c1=O [Compound 161, 2-methyl-2-(4-(((1-(4-methylbenzyl)-4-octyl-5-oxo-4,5-dihydro-1H-1,2,4-triazol-3-yl)methoxy)carbonyl)phenylthio)propanoic acid]
3 | 51 to 200 | CCCCCCCn1c(COC(=O)c2ccc(SC(C)(C)C(=O)O)cc2)nn(Cc2ccc(C)cc2)c1=O [Compound 191, 2-(4-(((4-heptyl-1-(4-methylbenzyl)-5-oxo-4,5-dihydro-1H-1,2,4-triazol-3-yl)methoxy)carbonyl)phenylthio)-2-methylpropanoic acid]
